For one experiment, the target named is T1, integrin α2β1 (Homo sapiens, UniProt P05556+P17301).
T1 construct: Human blood was obtained by venipuncture from healthy volunteers; endogenous in cells; host or cells: washed human platelets from blood of healthy volunteers
Briefly: Platelet adhesion assay: washed human platelet binding to soluble type I collagen. It is filed as cell-based. The protocol: The series of compounds was tested for the ability to block washed human platelet binding to soluble type I collagen. […] Further understanding was sought with respect to the SAR of the urea functionality and its spatial positioning.
(§1) Preparation of Washed Platelets. All Studies were Conducted Following IRB-approved protocols at the University of Pennsylvania. Human blood was obtained by venipuncture from healthy volunteers using 0.3% sodium citrate as anticoagulant, then acid-citrate-dextrose was added (1 mL per 10 mL blood). Platelet-rich plasma (PRP) was then prepared by centrifugation at 200 g for 20 min. Platelets were obtained from the PRP by addition of prostacyclin (PG I2: 0.1 μg/ml) followed by centrifugation at 1000 g for 10 min. The pelleted platelets were resuspended in HEPES/Tyrode's buffer (20 mM HEPES, 129 mM NaCl, 0.34 mM Na2HPO4, 2.9 mM KCl, 12 mM NaHCO3, 5 mM glucose, 1 mm MgCl2, pH 7.3) and repelleted by repeated PG I2 addition and centrifugation.
(§2) Platelet Adhesion Assays. Immulon 2 flat bottom 96-well Plates (Dynatech Labs, Burlington, Mass.) were coated with soluble type I collagen, fibronectin (FN) or osteopontin (OPN) (5 μg/ml) in PBS for 48 hrs at 4° C. The plates were then washed and blocked with BSA (5 mg/ml in PBS) for at least 24 hr. Adhesion assays using type I collagen contained test compound and 1.6×10^7 Platelets in GFP buffer in a final volume of 100 μl. The plates were then incubated for 30 min at 37° C. and washed with TBS (10 mM Tris, 150 mM NaCl, pH 7.4). Quantification of adherent platelets was performed as previously described.^[27] Briefly, the platelets were stained for acid phosphatase by adding 0.1 M sodium citrate (pH 5.4) with 0.1% Triton X-100 containing 5 mM p-nitrophenyl phosphate substrate (100 μl/well) and incubated for 40 min at 37° C. Color was then developed by the addition of 50 μl 2.0 M NaOH per well and the plates were read at 405 nm in a Molecular Devices Spectra Max M5 microplate reader. Adhesion to FN- and OPN-coated plates were performed similarly using a modified GFP buffer for resuspension (4 mM HEPES, 147 mM NaCl, 2.7 mM KCl, 0.35% BSA, 0.1% glucose, 1 mM MgCl2, 1 mM MnCl2, pH 7.4). Platelets were stimulated in OPN binding by addition of 20 μM ADP during incubation.^[28] The platelets in αvβ3-mediated binding to FN were pre-treated with 2 μg per mL ReoPro (abciximab, chimeric 7E3 Fab; Centocor, Malvern Pa.) for 20 minutes at RT.

In the next experiment the target is T2, integrin α5β1 (Homo sapiens, UniProt P05556+P08648).
T2 construct: Platelets express several integrins, including αIIbβ3, αvβ3, α2β1, α5β1, and α6β1; endogenous in cells; host or cells: washed human platelets from blood of healthy volunteers
Briefly: Platelet adhesion to fibronectin (in the presence of abciximab). It counts as cell-based. The following applies: Table 2 selectivity, ligand Fibronectin. As for the experimental part: as §1
as §2, with “The platelets in αvβ3-mediated binding to FN were pre-treated with 2 μg per mL ReoPro (abciximab, chimeric 7E3 Fab; Centocor, Malvern Pa.) for 20 minutes at RT.” left out

Where [1] appears, read: Table 1, washed human platelets, soluble type I collagen, 30 min at 37° C.
Setting [2] is: Compounds Produced in Accordance with Scheme 2.

A value given as a limit tells only on which side of the number the result lay.

T2 sequence (P08648 42-894 limits assumed): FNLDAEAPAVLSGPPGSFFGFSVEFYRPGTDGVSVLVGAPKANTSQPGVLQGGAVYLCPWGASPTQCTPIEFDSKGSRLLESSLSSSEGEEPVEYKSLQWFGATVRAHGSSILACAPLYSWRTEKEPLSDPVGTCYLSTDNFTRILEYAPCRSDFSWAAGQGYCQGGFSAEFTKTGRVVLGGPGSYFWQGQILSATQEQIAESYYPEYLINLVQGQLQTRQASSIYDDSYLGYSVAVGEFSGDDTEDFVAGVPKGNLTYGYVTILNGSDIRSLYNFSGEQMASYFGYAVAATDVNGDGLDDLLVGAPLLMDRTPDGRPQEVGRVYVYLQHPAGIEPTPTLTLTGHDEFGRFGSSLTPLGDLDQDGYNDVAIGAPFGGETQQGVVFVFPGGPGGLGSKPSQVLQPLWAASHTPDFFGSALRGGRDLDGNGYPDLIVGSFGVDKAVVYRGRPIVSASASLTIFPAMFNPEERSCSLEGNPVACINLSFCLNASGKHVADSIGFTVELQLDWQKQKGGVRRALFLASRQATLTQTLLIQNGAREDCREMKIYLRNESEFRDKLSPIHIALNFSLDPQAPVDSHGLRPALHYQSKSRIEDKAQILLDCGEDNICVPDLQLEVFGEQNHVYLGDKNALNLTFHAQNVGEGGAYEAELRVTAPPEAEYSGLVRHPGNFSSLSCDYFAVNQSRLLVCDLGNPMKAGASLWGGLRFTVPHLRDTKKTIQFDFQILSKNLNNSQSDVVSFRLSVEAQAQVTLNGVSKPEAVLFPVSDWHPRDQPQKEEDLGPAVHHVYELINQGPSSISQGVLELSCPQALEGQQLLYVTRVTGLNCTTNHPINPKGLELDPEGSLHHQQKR
T2 sequence (P08648 895-1049 limits assumed): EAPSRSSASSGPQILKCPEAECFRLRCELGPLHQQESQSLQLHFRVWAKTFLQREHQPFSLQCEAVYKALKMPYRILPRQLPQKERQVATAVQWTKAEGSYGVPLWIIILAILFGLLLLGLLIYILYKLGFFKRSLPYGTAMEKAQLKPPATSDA
T2 sequence (P05556 21-798): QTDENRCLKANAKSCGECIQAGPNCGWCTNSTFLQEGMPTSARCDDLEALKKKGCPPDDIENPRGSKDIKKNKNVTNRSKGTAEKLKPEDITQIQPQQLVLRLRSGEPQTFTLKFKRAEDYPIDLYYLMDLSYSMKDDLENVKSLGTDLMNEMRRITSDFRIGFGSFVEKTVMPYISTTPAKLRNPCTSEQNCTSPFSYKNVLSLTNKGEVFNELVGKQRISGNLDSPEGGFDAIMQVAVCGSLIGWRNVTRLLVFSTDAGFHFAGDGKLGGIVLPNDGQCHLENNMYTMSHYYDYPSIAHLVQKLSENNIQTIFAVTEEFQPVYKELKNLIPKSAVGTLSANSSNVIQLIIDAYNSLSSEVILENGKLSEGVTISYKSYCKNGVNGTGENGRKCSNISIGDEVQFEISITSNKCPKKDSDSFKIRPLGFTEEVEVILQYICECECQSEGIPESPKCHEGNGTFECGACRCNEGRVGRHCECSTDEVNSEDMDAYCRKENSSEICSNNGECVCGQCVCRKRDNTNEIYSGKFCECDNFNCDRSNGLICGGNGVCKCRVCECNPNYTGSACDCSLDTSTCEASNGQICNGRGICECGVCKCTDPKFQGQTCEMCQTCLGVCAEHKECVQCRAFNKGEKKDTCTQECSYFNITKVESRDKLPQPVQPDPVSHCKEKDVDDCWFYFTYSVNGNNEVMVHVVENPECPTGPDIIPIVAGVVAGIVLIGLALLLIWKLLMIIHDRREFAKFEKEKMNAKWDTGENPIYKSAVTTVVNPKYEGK
T1 sequence (P17301 30-1181): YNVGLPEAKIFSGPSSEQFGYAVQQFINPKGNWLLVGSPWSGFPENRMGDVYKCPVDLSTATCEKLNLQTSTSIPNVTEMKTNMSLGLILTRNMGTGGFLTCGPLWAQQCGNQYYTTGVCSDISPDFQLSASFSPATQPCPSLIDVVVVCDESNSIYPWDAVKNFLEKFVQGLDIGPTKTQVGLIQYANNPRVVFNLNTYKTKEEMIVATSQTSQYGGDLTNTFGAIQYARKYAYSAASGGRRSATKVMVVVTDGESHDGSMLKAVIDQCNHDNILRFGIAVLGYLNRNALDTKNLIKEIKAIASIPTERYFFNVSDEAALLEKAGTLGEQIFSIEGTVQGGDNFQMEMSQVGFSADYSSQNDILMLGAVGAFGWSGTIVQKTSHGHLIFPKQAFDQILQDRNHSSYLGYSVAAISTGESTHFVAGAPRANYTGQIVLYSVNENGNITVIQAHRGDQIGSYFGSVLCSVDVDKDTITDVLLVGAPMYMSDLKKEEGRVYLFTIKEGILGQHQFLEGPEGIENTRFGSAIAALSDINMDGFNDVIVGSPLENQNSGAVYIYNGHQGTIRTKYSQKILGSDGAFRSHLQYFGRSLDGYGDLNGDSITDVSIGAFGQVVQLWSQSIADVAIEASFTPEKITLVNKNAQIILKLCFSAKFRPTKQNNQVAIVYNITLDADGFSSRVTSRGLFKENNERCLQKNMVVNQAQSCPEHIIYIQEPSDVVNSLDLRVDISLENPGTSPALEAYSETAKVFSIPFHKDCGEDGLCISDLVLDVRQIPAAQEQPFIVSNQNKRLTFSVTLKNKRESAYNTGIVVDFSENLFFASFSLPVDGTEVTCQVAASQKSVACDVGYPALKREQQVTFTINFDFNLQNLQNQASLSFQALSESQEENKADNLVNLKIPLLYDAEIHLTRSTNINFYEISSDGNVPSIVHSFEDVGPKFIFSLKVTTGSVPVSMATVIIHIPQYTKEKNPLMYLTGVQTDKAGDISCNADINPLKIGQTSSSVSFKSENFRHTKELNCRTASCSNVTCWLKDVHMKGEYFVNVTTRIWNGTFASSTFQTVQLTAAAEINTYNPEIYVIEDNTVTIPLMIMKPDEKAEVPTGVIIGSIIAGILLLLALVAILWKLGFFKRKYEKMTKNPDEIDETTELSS
T1 sequence (P05556 21-798): as the sequence (P05556 21-798) above

At integrin α2β1 (setting [1]), `CC1(C)SCN(S(=O)(=O)c2ccccc2)C1C(=O)N[C@@H](CNC(=S)NCc1ccccc1)C(=O)O` (some centres unmarked) [Compound 6] displayed a concentration for half-maximal inhibition (IC50) of 7 nM.
As for `C[C@@H](NC(=O)NC[C@H](NC(=O)C1N(S(=O)(=O)c2ccccc2)CSC1(C)C)C(=O)O)c1ccccc1` (some centres unmarked) [Compound 7], the “greater potency of (R) conformation (7) than (S) conformation (8)” value at integrin α2β1 (7 versus 8, platelet adhesion to type I collagen) is given as over 25 fold. The compound also had a concentration for half-maximal inhibition (IC50) at integrin α2β1 (setting [1]) of 22 nM.
In turn, `C[C@H](NC(=O)NC[C@H](NC(=O)C1N(S(=O)(=O)c2ccccc2)CSC1(C)C)C(=O)O)c1ccccc1` (some centres unmarked) [Compound 8] gave a half-inhibitory concentration (IC50) on integrin α2β1 (setting [1]) of over 500 nM.
In the case of `Cc1ccccc1CNC(=O)NC[C@H](NC(=O)C1N(S(=O)(=O)c2ccccc2)CSC1(C)C)C(=O)O` (some centres unmarked) [Compound 9], the concentration for half-maximal inhibition (IC50) at integrin α5β1 is over 1000 nM; on integrin α2β1 (setting [1]), 4 nM.
On the same counts, the results for `Cc1cccc(CNC(=O)NC[C@H](NC(=O)C2N(S(=O)(=O)c3ccccc3)CSC2(C)C)C(=O)O)c1` (some centres unmarked) [Compound 10] are over 1000 nM and 8 nM.
`Cc1ccc(CNC(=O)NC[C@H](NC(=O)C2N(S(=O)(=O)c3ccccc3)CSC2(C)C)C(=O)O)cc1` (some centres unmarked) [Compound 11] displayed an IC50 at integrin α2β1 (setting [1]) of 6 nM.
As to `CC1(C)SCN(S(=O)(=O)c2ccccc2)C1C(=O)N[C@@H](CNC(=O)NCc1ccc(Cl)cc1)C(=O)O` (some centres unmarked) [Compound 15], the half-inhibitory concentration (IC50) at integrin α5β1 is over 1000 nM; at integrin α2β1 (setting [1]), 6 nM.
In the case of `CC1(C)SCN(S(=O)(=O)c2ccccc2)C1C(=O)N[C@@H](CNC(=O)NCc1ccc(Br)cc1)C(=O)O` (some centres unmarked) [Compound 16], at integrin α2β1 (setting [1]), the half-inhibitory concentration (IC50) was determined as 4 nM.
With `CC1(C)SCN(S(=O)(=O)c2ccccc2)C1C(=O)N[C@@H](CNC(=O)NCc1ccc(C(F)(F)F)cc1)C(=O)O` (some centres unmarked) [Compound 17], the IC50 on integrin α2β1 (setting [1]) came to 41 nM.
Consider `CC(C)(C)CNC(=O)NC[C@H](NC(=O)C1N(S(=O)(=O)c2ccccc2)CSC1(C)C)C(=O)O` (some centres unmarked) [Compound 19], for which, on integrin α2β1 (setting [1]), the IC50 turned out to be 15 nM.
Consider `CC1(C)SCN(S(=O)(=O)c2ccccc2)C1C(=O)N[C@@H](CNC(=O)NCC(c1ccccc1)c1ccccc1)C(=O)O` (some centres unmarked) [Compound 20], for which the IC50 at integrin α2β1 (setting [1]) was over 2000 nM.
Still for that read-out and setting: next, `CC1(C)SCN(S(=O)(=O)c2ccccc2)C1C(=O)N[C@@H](CNC(=O)NC(c1ccccc1)c1ccccc1)C(=O)O` (some centres unmarked) [Compound 21]: 320 nM; `CC1(C)SCN(S(=O)(=O)c2ccccc2)C1C(=O)N[C@@H](CNC(=O)NCCc1ccccc1)C(=O)O` (some centres unmarked) [Compound 22]: 133 nM.
On the same count and under the same terms, the figure for `CC1(C)SCN(S(=O)(=O)c2ccccc2)C1C(=O)N[C@@H](CNC(=O)NCC1CCCCC1)C(=O)O` (some centres unmarked) [Compound 23] is 28 nM.
Compound `O=C(NCc1ccccc1)NCC(NC(=O)C1CCN1S(=O)(=O)c1ccccc1)C(=O)O` (centres unmarked) [Compound 24, 2-[(1-Benzenesulfonyl-azetidine-2-carbonyl)-amino]-3-(3-benzyl-ureido)-propionic acid] came in with an IC50 on integrin α2β1 (setting [2]) of 215 nM.
Still for that read-out and setting: next, `CC1OCN(S(=O)(=O)c2ccccc2)C1C(=O)NC(CNC(=O)NCc1ccccc1)C(=O)O` (centres unmarked) [Compound 27, 2-[(3-Benzenesulfonyl-5-methyl-oxazolidine-4-carbonyl)-amino]-3-(3-benzyl-ureido)-propionic acid]: 12 nM.

What is called IC50 is the concentration that inhibits the measured activity by half.
